Data published in US20150110907A1, “METHOD OF TESTING THE ACTIVITY OF A POTENTIALLY ACTIVE SUBSTANCE TO INHIBIT THE ENZYMATIC ACTIVITY OF PHOSPHOLIPASE A2” (BASF Beauty Care Solutions France S.A.S., priority 2002, published 2015).
Where two headings read alike, the source gives them in different places. One block for each compound: values may come before it.

Target: T1, PLA2 of type I originating from pig pancreas (Sus scrofa, UniProt P00592)
T1 construct: originates from pig pancreas (enzyme of type I); from tissue; host or cells: pig pancreas
T1 sequence (P00592 23-146): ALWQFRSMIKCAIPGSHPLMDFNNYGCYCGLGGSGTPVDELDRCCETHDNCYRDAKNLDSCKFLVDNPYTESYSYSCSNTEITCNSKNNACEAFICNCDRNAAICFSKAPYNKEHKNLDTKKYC
Assay: Acellular in vitro inhibition of PLA2 of type I, determination of free fatty acids
Type: biochemical
Conditions: for Inhibition (%) Product diluted at 1/100 in demineralized water: initial solution diluted at 1/100 in demineralized water; for inhibition at 1000 µM: 1 mM; for Inhibition by substance tested pure (%): percentage inhibition with respect to the control
Method: The study of the inhibition of phospholipase A2 (PLA2) is carried out in an acellular in vitro model which aims to be a reflection, near as possible, of the situation encountered in vivo.
The PLA2s of type I and of type II are used in vitro, in a model comprising: • 1) a substrate selected from the ester derivatives of arachidonic acid (such as β-arachidonoyl γ-palmitoyl L-α-phosphatidylcholine, which is a phospholipid containing arachidonic acid in SN2 position, site hydrolyzed by the phospholipase A2) which specifically is the fatty add involved in the synthesis of the mediators of the inflammation, • 2) a bivalent ion, playing the role of catalyst (such as calcium), • 3) an activator, which is indispensable for the activity of the enzyme, playing the role of solubilizer of the substrate in the reaction medium and enabling promoting the enzyme-substrate interaction (preferably sodium deoxycholate).
The enzyme in the presence of its cofactor is incubated for a determined period of time (e.g. about 15 minutes) with the inhibitor, and then a second incubation is carried out for (e.g. about 20 minutes) in the presence of the substrate which is preferably β-arachidonoyl γ-palmitoyl L-α-phosphatidylcholine and of the activator, which is preferably sodium deoxycholate.
At the end of this incubation, a determination of the non-esterified fatty acids is made on the reaction medium by an enzymatic technique that it is for example possible to follow by colorimetry at a defined wavelength.
In parallel, a control corresponding to the activity of the phospholipase A2 in the absence of inhibitor is carried out.
The PLA2 in aqueous solution (35 Units/ml), is placed in the presence of 3 mM β-arachidonoyl γ-palmitoyl L-α-phosphatidylcholine, which is a phospholipid containing, in SN2 position, site hydrolyzed by the phospholipase A2, arachidonic add, which is specifically an important fatty acid involved in the synthesis of the mediators of inflammation,
a) the enzyme in the presence of the cofactor (calcium) is incubated for 15 minutes at ambient temperature (20° C.) with the inhibitor;
b) then, a second incubation of 20 minutes is made in the presence of β-arachidonoyl γ-palmitoyl L-α-phosphatidylcholine (3 mM) and sodium deoxycholate (1.6 mM).
At the end of this incubation, a determination of the free fatty acids, thus non-esterified free fatty acids, is made on the reaction medium by a classical enzymatic technique which is well-known to the person skilled in the art, that it is possible to follow by colorimetry, e.g. here at 550 nm,
The anti-PLA2 activity of increasing concentrations of the product selected was measured over three different batches of starting material. Each determination was made in triplicate, […]

[1] = non-diluted, initial concentrations: aristolochic acid 2 mM, p-bromophenacyl bromide 10 mM, nordihydroguaiaretic acid 5 mM
[2] = Table VII, read-out: percentage inhibition with respect to control
[3] = Table VII, 10 mM, read-out: percentage inhibition with respect to control

Compound: COc1cccc2c1cc([N+](=O)[O-])c1c(C(=O)O)cc3c(c12)OCO3 [Aristolochic acid, 8-methoxy-6-nitrophenanthro(3,4-d)-1,3-dioxole-5-carboxylic acid]
- Inhibition (%) Product diluted at 1/100 in demineralized water: 10.00% ± 3.4
- Inhibition (%) Product diluted at 1/1000 in demineralized water (initial solution diluted at 1/1000 in demineralized water): 0.25% ± 0.5
- Inhibition (%) Non-diluted product [1]: 96.2% ± 1.04

Compound: O=c1c(-c2ccc(O)cc2)coc2cc(O)cc(O)c12 [genistein]
- inhibition of the PLA2 (commercial 1% genistein solution): 28.79%

Compound: O=C(CBr)c1ccc(Br)cc1 [p-bromophenacyl bromide]
- Inhibition (%) Product diluted at 1/100 in demineralized water: 4.5% ± 2.3
- inhibition at 10000 µM (non-diluted, initial concentrations: aristolochic acid 2 mM, p-bromophenacyl bromide 10 mM, nordihydroguaiaretic acid 5 mM, read-out: Inhibition (%) Non-diluted product): 29.9%

Compound: Magnesium gluconate
- Inhibition by substance diluted at 1% in demineralized water (%): 0%
- Inhibition by substance tested pure (%): 3.4%

Compound: Zinc gluconate
- Inhibition by substance diluted at 1% in demineralized water (%): 12.6%
- Inhibition by substance tested pure (%): 50%

Results, then the compound that gave them:

- inhibition at 1000 µM [2]: 3.5%
- inhibition at 10000 µM [3]: 7%
Compound: CC(=O)Oc1ccccc1C(=O)O [Aspirin]

- percentage inhibition with respect to control (Table VII, 10 mM): 0%
Compound: C[C@]12CCC(=O)C=C1CC[C@@H]1[C@@H]2C(=O)C[C@@]2(C)[C@H]1CC[C@]2(O)C(=O)CO [Cortisone]

- inhibition at 1000 µM [2]: 8%
- inhibition at 10000 µM [3]: 29.8%
Compound: O=C(O)Cc1ccccc1Nc1c(Cl)cccc1Cl [Diclofenac]

- inhibition at 10000 µM [3]: 4.5%
Compound: C[C@]12CCC(=O)C=C1CC[C@@H]1[C@@H]2[C@@H](O)C[C@@]2(C)[C@H]1CC[C@]2(O)C(=O)CO [Hydrocortisone]

- inhibition at 1000 µM [2]: 6.9%
- inhibition at 10000 µM [3]: 40.3%
Compound: CC(C)Cc1ccc(C(C)C(=O)O)cc1 (centres unmarked) [Ibuprofen]

- inhibition at 1000 µM [2]: 0%
- inhibition at 10000 µM [3]: 25.7%
Compound: COc1ccc2c(c1)c(CC(=O)O)c(C)n2C(=O)c1ccc(Cl)cc1 [Indomethacin]

- inhibition at 10000 µM [3]: 6.3%
Compound: C[C@]12C=CC(=O)C=C1CC[C@@H]1[C@@H]2[C@@H](O)C[C@@]2(C)[C@H]1CC[C@]2(O)C(=O)CO [Prednisolone]

- Inhibition (%) Product diluted at 1/100 in demineralized water: 8.8% ± 0.8
- Inhibition (%) Non-diluted product [1]: 97.3% ± 13.2
Compound: CC(Cc1ccc(O)c(O)c1)C(C)Cc1ccc(O)c(O)c1 (centres unmarked) [nordihydroguaiaretic acid]
